Test results published in patent US10005739B2, “Quinazolinone and isoquinolinone derivative” (CHUGAI SEIYAKU KABUSHIKI KAISHA, priority 2013, dated 2018).

These molecules were tested against DDR1 (Homo sapiens (Human), UniProt Q08345) (assay: Measurement of DDR1 enzyme inhibitory activity (phosphorylation of biotinylated peptide, time-resolved fluorescence)). Details: human DDR1 enzyme, biotinylated peptide phosphorylation; read-out: DDR1 enzyme inhibition assay IC50.
Type: biochemical
Protocol: 1. Measurement of DDR1 Enzyme Inhibitory Activity
The DDR1 enzyme inhibitory activity was determined with human DDR1 enzyme prepared using the baculovirus expression system, based on the inhibitory activity of phosphorylation of a biotinylated peptide ([…]) by the enzyme. The phosphorylated biotinylated peptide was detected using time-resolved fluorescence, with an anti-phosphorylated tyrosine antibody conjugated with europium cryptate and streptavidin conjugated with XL665 which is a derivative of allophycocyanin.

DDR1, sequence (Q08345 19-913): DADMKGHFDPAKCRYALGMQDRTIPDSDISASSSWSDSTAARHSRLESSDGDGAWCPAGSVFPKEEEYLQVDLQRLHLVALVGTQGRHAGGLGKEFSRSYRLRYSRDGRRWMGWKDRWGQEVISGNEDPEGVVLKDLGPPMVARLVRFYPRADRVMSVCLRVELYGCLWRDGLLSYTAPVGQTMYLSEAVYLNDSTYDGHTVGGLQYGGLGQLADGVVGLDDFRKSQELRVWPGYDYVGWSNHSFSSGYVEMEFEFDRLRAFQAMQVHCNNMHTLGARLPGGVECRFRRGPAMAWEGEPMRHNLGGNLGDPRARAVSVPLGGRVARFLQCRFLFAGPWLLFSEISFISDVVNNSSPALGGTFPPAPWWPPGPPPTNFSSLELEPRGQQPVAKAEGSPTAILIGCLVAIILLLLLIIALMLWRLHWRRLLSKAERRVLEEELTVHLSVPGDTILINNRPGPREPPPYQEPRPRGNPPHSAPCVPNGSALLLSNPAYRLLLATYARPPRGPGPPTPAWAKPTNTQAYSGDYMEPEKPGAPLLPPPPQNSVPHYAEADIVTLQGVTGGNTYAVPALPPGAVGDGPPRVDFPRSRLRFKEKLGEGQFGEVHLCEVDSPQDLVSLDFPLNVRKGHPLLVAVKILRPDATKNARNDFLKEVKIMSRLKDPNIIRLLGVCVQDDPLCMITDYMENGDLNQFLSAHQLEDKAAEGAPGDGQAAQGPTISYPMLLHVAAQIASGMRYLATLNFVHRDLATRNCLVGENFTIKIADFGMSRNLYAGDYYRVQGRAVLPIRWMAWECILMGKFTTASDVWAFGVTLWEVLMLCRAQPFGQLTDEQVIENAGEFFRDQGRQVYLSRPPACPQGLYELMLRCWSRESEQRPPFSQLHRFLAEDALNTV

SMILES | IC50 [nM]
CCS(=O)(=O)c1ccc(Cl)cc1Nn1cnc2cc(OC)c(OC)cc2c1=O [Compound A-39, 3-(5-Chloro-2-ethylsulfonylanilino)-6-dimethoxyquinazolin-4-one] | 1750
CCSc1ccc(Cl)cc1Nn1cnc2ccc(I)cc2c1=O [Compound A-60, 3-(5-Chloro-2-ethylsulfanylanilino)-6-iodoquinazolin-4-one] | 220
CCSc1ccc(Cl)cc1Nn1cnc2cc3c(cc2c1=O)OCO3 [Compound A-40, 7-(5-Chloro-2-ethylsulfanylanilino)-[1,3]dioxolo[4,5-g]quinazolin-8-one] | 350
CCSc1ccc(Cl)cc1Nn1cnc2cc3c(cc2c1=O)OCCO3 [Compound A-42, 3-(5-Chloro-2-ethylsulfanylanilino)-7,8-dihydro-[1,4]dioxino[2,3-g]quinazolin-4-one] | 3100
CCS(=O)(=O)c1ccc(Cl)cc1Nn1cnc2ncc(Br)cc2c1=O [Compound A-17, 6-Bromo-3-(5-chloro-2-ethylsulfonylanilino)pyrido[2,3-d]pyrimidin-4-one] | 270
CCSc1ccc(Cl)cc1Nn1cnc2ccc(N)cc2c1=O [Compound A-59, 6-Amino-3-(5-chloro-2-ethylsulfanylanilino)quinazolin-4-one] | 480
CCSc1ccc(Cl)cc1Nn1cnc2c(-c3ccc(F)cc3)cc(C)cc2c1=O [Compound A-3, 3-(5-Chloro-2-ethylsulfanylanilino)-8-(4-fluorophenyl)-6-methylquinazolin-4-one] | 110
CCSc1ccc(Cl)cc1Nn1cnc2c(Br)cc(OC(F)(F)F)cc2c1=O [Compound A-46, 8-Bromo-3-(5-chloro-2-ethylsulfanylanilino)-6-(trifluoromethoxy)quinazolin-4-one] | 420
CCS(=O)(=O)c1ccc(Cl)cc1Nn1cnc2ccc(C(C)C)cc2c1=O [Compound A-63, 3-(5-Chloro-2-ethylsulfonylanilino)-6-propan-2-ylquinazolin-4-one] | 200
CCS(=O)(=O)c1ccc(Cl)cc1Nn1cnc2cc(C)c(Br)cc2c1=O [Compound A-8, 6-Bromo-3-(5-chloro-2-ethylsulfonylanilino)-7-methylquinazolin-4-one] | 550
Cc1cc(Br)c2ncn(Nc3cc(Cl)ccc3Sc3ccccc3)c(=O)c2c1 [Compound B-12, 8-Bromo-3-(5-chloro-2-phenylsulfanylanilino)-6-methylquinazolin-4-one] | 150
CCS(=O)(=O)c1ccc(Cl)cc1Nn1cnc2ccc(C)cc2c1=O [Compound A-51, 3-(5-Chloro-2-ethylsulfonylanilino)-6-methylquinazolin-4-one] | 110
CCS(=O)(=O)c1ccc(Cl)cc1Nn1cnc2ccc(C(F)(F)F)cc2c1=O [Compound A-10, 3-(5-Chloro-2-ethylsulfonylanilino)-6-(trifluoromethyl)quinazolin-4-one] | 120
N#Cc1ccc(S(=O)(=O)c2ccccc2)c(Nn2cnc3ccc(C(F)(F)F)cc3c2=O)c1 [Compound B-16, 4-(Benzenesulfonyl)-3-[[4-oxo-6-(trifluoromethyl)quinazolin-3-yl]amino]benzonitrile] | 1470
CCCc1ccc2ncn(Nc3cc(Cl)ccc3SCC)c(=O)c2c1 [Compound A-54, 3-(5-Chloro-2-ethylsulfanylanilino)-6-propylquinazolin-4-one] | 330
CCOc1ccc2ncn(Nc3cc(Cl)ccc3S(=O)(=O)CC)c(=O)c2c1 [Compound A-37, 3-(5-Chloro-2-ethylsulfonylanilino)-6-ethoxyquinazolin-4-one] | 430

Now from value to molecule:

IC50 [nM] | SMILES
130 | CCSc1ccc(C#N)cc1Nn1cnc2cc(C)c(Br)cc2c1=O [Compound C-5, 3-[(6-bromo-7-methyl-4-oxoquinazolin-3-yl)amino]-4-ethylsulfanylbenzonitrile]
2080 | CCS(=O)(=O)c1ccc(N)cc1Cn1ccc2ccc(C(F)(F)F)cc2c1=O [Compound F-7, 2-[(5-Amino-2-ethylsulfonylphenyl)methyl]-7-(trifluoromethyl)isoquinolin-1-one]
230 | CCSc1ccc(C#N)cc1Nn1cnc2cc(Br)c(OC(F)(F)F)cc2c1=O [Compound C-17, 3-[[7-Bromo-4-oxo-6-(trifluoromethoxy)quinazolin-3-yl]amino]-4-ethylsulfanylbenzonitrile]
540 | CCSc1ccc(Cl)cc1Cn1cnc2c(Br)cc(OC(F)(F)F)cc2c1=O [Compound E-11, 8-bromo-3-[(5-chloro-2-ethylsulfanylphenyl)methyl]-6-(trifluoromethoxy)quinazolin-4-one]
120 | CCS(=O)(=O)c1ccc(Cl)cc1Cn1cnc2c(Cl)cc(OC(F)(F)F)cc2c1=O [Compound E-14, 8-Chloro-3-[(5-chloro-2-ethylsulfonylphenyl)methyl]-6-(trifluoromethoxy)quinazolin-4-one]
160 | CCS(=O)(=O)c1ccc(C#N)cc1Nn1cnc2c(Br)cc(C)cc2c1=O [Compound C-2, 3-[(8-Bromo-6-methyl-4-oxoquinazolin-3-yl)amino]-4-ethylsulfonylbenzonitrile]
490 | CCS(=O)(=O)c1ccc(Cl)cc1Cn1ccc2ccc(OC)cc2c1=O [Compound F-3, 2-[(5-Chloro-2-ethylsulfonylphenyl)methyl]-7-methoxyisoquinolin-1-one]
240 | C#Cc1ccc(S(=O)(=O)CC)c(Nn2cnc3c(Br)cc(C(F)(F)F)cc3c2=O)c1 [Compound C-37, 8-Bromo-3-(2-ethylsulfonyl-5-ethynylanilino)-6-(trifluoromethyl)quinazolin-4-one]
640 | CCSc1ccc(Cl)cc1Cn1cnc2c(Br)cc(C)cc2c1=O [Compound E-1, 8-Bromo-3-[(5-chloro-2-ethylsulfanylphenyl)methyl]-6-methylquinazolin-4-one]
170 | CCSc1ccc(C(F)(F)F)cc1Nn1cnc2c(Br)cc(C(F)(F)F)cc2c1=O [Compound C-34, 8-Bromo-3-[2-ethylsulfanyl-5-(trifluoromethyl)anilino]-6-(trifluoromethyl)quinazolin-4-one]
160 | CCSc1ccc(OC)cc1Nn1cnc2c(Br)cc(C(F)(F)F)cc2c1=O [Compound C-29, 8-Bromo-3-(2-ethylsulfanyl-5-methoxyanilino)-6-(trifluoromethyl)quinazolin-4-one]
600 | CCSc1ccc(F)cc1Nn1cnc2c(Br)cc(C(F)(F)F)cc2c1=O [Compound C-21]
290 | CCS(=O)(=O)c1ccc(OC)cc1Nn1cnc2ccc(OC(F)(F)F)cc2c1=O [Compound C-28, 3-(2-Ethylsulfonyl-5-methoxyanilino)-6-(trifluoromethoxy)quinazolin-4-one]
810 | CCS(=O)(=O)c1ccc([N+](=O)[O-])cc1Cn1ccc2ccc(OC(F)(F)F)cc2c1=O [Compound F-9, 2-[(2-Ethylsulfonyl-5-nitrophenyl)methyl]-7-(trifluoromethoxy)isoquinolin-1-one]
410 | CCSc1ncc(Cl)cc1Nn1cnc2ccc(C(F)(F)F)cc2c1=O [Compound D-2, 3-[(5-Chloro-2-ethylsulfanylpyridin-3-yl)amino]-6-(trifluoromethyl)quinazolin-4-one]

Same assay, conditions: read-out: DDR1 enzyme inhibition assay IC50

SMILES | IC50 [nM]
CCS(=O)(=O)c1ccc(Cl)cc1Cn1cnc2cc(CN3CCC(N4CCCCC4)C3)c(Br)cc2c1=O (centres unmarked) [Compound J-9, 6-Bromo-3-[(5-chloro-2-ethylsulfonylphenyl)methyl]-7-[(3-piperidin-1-ylpyrrolidin-1-yl)methyl]quinazolin-4-one] | 120
